Measurements: PubChem BioAssay (NCI)
Where “and” joins values, the source holds several entries; their conditions need not be identical. Equal values may be shown once.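 Interpolation was linear, between the two tested concentrations surrounding the appropriate level; five concentrations were tested over 48 hours in 96-well plates. The concentration for 50% growth inhibition is given as GI50. TGI: concentration producing complete growth inhibition.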

Experiments:
Assay in all cases: DTP human tumour cell line panel, 48 h
A498 renal = test system: A498 renal
A549 NSCLC = test system: A549 NSCLC
HS 578T breast = test system: HS 578T breast
HT29 colon = test system: HT29 colon
KM12 colon = test system: KM12 colon
MCF7 breast = test system: MCF7 breast
OVCAR-8 ovarian = test system: OVCAR-8 ovarian
RXF 393 renal = test system: RXF 393 renal
SW-620 colon = test system: SW-620 colon
UACC-257 melanoma = test system: UACC-257 melanoma

CCOC(=O)c1[nH]c2cc(Cl)ccc2c1[C@@H](C(=O)NC(C)(C)C)N(CC)C(=O)CCCCC#Cc1cccc2c1CN(C1CCC(=O)NC1=O)C2=O (stereo not given in full)
GI50 (A498 renal): < 0.0104 µM
TGI (A498 renal): 0.0723 µM
GI50 (A549 NSCLC): 1.3 µM
TGI (A549 NSCLC): > 89.4 µM
GI50 (HS 578T breast): < 0.01 µM
TGI (HS 578T breast): 6.66 µM
GI50 (HT29 colon): 2.13 µM
TGI (HT29 colon): > 100 µM
GI50 (KM12 colon): 0.901 µM
TGI (KM12 colon): > 100 µM
GI50 (MCF7 breast): 0.117 µM
TGI (MCF7 breast): > 100 µM
GI50 (OVCAR-8 ovarian): < 0.01 µM
TGI (OVCAR-8 ovarian): 35 µM
GI50 (RXF 393 renal): 0.113 µM
TGI (RXF 393 renal): 3.91 µM
GI50 (SW-620 colon): < 0.01 µM
TGI (SW-620 colon): > 100 µM
GI50 (UACC-257 melanoma): 3.05 µM
TGI (UACC-257 melanoma): > 87.5 µM

O=C1C2CCN(CC2)C1CN1CCOCC1 (stereo not given)
TGI (A498 renal): 31.2 µM
TGI (A549 NSCLC): 37.5 µM
TGI (HS 578T breast): 82.1 µM
TGI (HT29 colon): 16.9 µM
TGI (KM12 colon): 30.8 µM
TGI (MCF7 breast): 10.8 µM
TGI (OVCAR-8 ovarian): 13.6 µM
TGI (RXF 393 renal): 5.33 µM
TGI (SW-620 colon): 3.2 µM
TGI (UACC-257 melanoma): 10.2 µM

CN(C)CCNc1ccc2ncn3c4ccc(O)cc4c(=O)c1c23
TGI (A498 renal): 8.04 µM
TGI (A549 NSCLC): 4.26 µM
TGI (HS 578T breast): 8.19 µM
TGI (HT29 colon): 7.39 µM
TGI (KM12 colon): > 35.7 µM
TGI (MCF7 breast): 4.91 µM
TGI (OVCAR-8 ovarian): 7.76 µM
TGI (RXF 393 renal): 2.58 µM
TGI (SW-620 colon): 11.8 µM
TGI (UACC-257 melanoma): 19.7 µM

Cc1c(CN2CCN(C(=O)[C@H](C)O)CC2)sc2c(N3CCOCC3)nc(-c3cnc(N)nc3)nc12
GI50 (A498 renal): 0.0542 µM and 0.0283 µM
TGI (A498 renal): 0.242 µM and 0.15 µM
GI50 (A549 NSCLC): 0.439 µM and 0.207 µM
TGI (A549 NSCLC): 9.75 µM and 7.57 µM
GI50 (HS 578T breast): 0.0539 µM and 0.0446 µM
TGI (HS 578T breast): 0.541 µM and 0.352 µM
GI50 (HT29 colon): 0.207 µM and 0.174 µM
TGI (HT29 colon): > 56.8 µM
GI50 (KM12 colon): 0.755 µM and 0.393 µM
TGI (KM12 colon): > 10 µM and 15.2 µM
GI50 (MCF7 breast): 0.0428 µM and 0.0379 µM
TGI (MCF7 breast): > 100 µM
GI50 (OVCAR-8 ovarian): 0.631 µM and 0.26 µM
TGI (OVCAR-8 ovarian): > 10 µM and 2.34 µM
GI50 (RXF 393 renal): 0.0603 µM and 0.119 µM
TGI (RXF 393 renal): 0.443 µM and 0.543 µM
GI50 (SW-620 colon): 0.473 µM and 0.285 µM
TGI (SW-620 colon): > 100 µM
GI50 (UACC-257 melanoma): 0.31 µM and 0.132 µM
TGI (UACC-257 melanoma): 3.76 µM and 0.751 µM

CN1C(=O)CCC(N2C(=O)c3cccc(NCCOCCOCCNC(=O)c4cc5c(o4)C(=O)c4ccccc4C5=O)c3C2=O)C1=O (stereo not given)
GI50 (A498 renal): 1.71 µM
TGI (A498 renal): 3.2 µM
GI50 (A549 NSCLC): 1.99 µM
TGI (A549 NSCLC): 4.49 µM
GI50 (HS 578T breast): 2.7 µM
TGI (HS 578T breast): 7.46 µM
GI50 (HT29 colon): 2.66 µM
TGI (HT29 colon): 6.98 µM
GI50 (KM12 colon): 3.35 µM
TGI (KM12 colon): 12.6 µM
GI50 (MCF7 breast): 1.46 µM
TGI (MCF7 breast): 3.54 µM
GI50 (OVCAR-8 ovarian): 2.45 µM
TGI (OVCAR-8 ovarian): 14.7 µM
GI50 (RXF 393 renal): 1.82 µM
TGI (RXF 393 renal): 3.79 µM
GI50 (SW-620 colon): 2.6 µM
TGI (SW-620 colon): 7.93 µM
GI50 (UACC-257 melanoma): 1.59 µM
TGI (UACC-257 melanoma): 3.11 µM

COc1nc(N)nc2c1ncn2C1CC(O)C(CO)O1 (stereo not given)
TGI (A498 renal): > 100 µM
TGI (A549 NSCLC): > 100 µM
TGI (HS 578T breast): > 100 µM
TGI (HT29 colon): > 100 µM
TGI (KM12 colon): > 100 µM
TGI (MCF7 breast): > 100 µM
TGI (OVCAR-8 ovarian): > 100 µM
TGI (RXF 393 renal): > 100 µM
TGI (SW-620 colon): > 100 µM
TGI (UACC-257 melanoma): > 100 µM

CC(C)(C)OC(=O)NCC(CNC(=O)OC(C)(C)C)C(N)=O
TGI (A498 renal): > 100 µM
TGI (A549 NSCLC): > 100 µM
TGI (HS 578T breast): > 100 µM
TGI (HT29 colon): > 100 µM
TGI (KM12 colon): > 100 µM
TGI (MCF7 breast): > 100 µM
TGI (OVCAR-8 ovarian): > 100 µM
TGI (RXF 393 renal): > 100 µM
TGI (SW-620 colon): > 100 µM
TGI (UACC-257 melanoma): > 100 µM

COc1ccc(-c2ncnc3c2ncn3CC#CCCl)cc1
GI50 (A498 renal): 2.15 µM
TGI (A498 renal): 12.5 µM
GI50 (A549 NSCLC): 7.39 µM
TGI (A549 NSCLC): 30.7 µM
GI50 (HS 578T breast): 3.8 µM
TGI (HS 578T breast): 22.1 µM
GI50 (HT29 colon): 7.12 µM
TGI (HT29 colon): 24.6 µM
GI50 (KM12 colon): 4.85 µM
TGI (KM12 colon): 17.5 µM
GI50 (MCF7 breast): 2.48 µM
TGI (MCF7 breast): 12.2 µM
GI50 (OVCAR-8 ovarian): 11.6 µM
TGI (OVCAR-8 ovarian): > 100 µM
GI50 (RXF 393 renal): 2.29 µM
TGI (RXF 393 renal): 5.94 µM
GI50 (SW-620 colon): 2.99 µM
TGI (SW-620 colon): 12.4 µM
GI50 (UACC-257 melanoma): 5.74 µM
TGI (UACC-257 melanoma): 21.8 µM
